Test system: H460 non-small lung cancer cells
Test: Growth of H460 tumor xenografts in vivo
Settings: H460 cells injected subcutaneously in mice; compared with vehicle-treated mice; treatments as provided in FIG. 6
Procedure: Mice were injected subcutaneously with H460 non-small lung cancer cells (ATCC) (5 million cells per mouse).

With `C#Cc1cccc(Nc2ncnc3cc(OCCOC)c(OCCOC)cc23)c1` [Tarceva™, N-(3-ethynylphenyl)-6,7-bis(2-methoxyethoxy)-4-quinazolinamine] the tumor growth was “markedly delayed tumor growth”.

For “Apo2L/TRAIL: Apo2L/TRAIL polypeptide consisting of amino acids 114-281 of FIG. 1”, the tumor growth was “markedly delayed tumor growth”.

From patent publication US20090155247A1, “Methods of Using Death Receptor Agonists and EGFR Inhibitors” (priority 2005, published 2009)
